# From patent publication US12343326B2, “Psychoactive medicines and their use for treating psychiatric and neurological conditions and disorders” (Transcend Therapeutics, Inc., priority 2021, dated 2025)
# How the values were obtained:
# Assay in all cases: β-arrestin based GPCR screen (PathHunter / GPCRmax), agonist mode
# Assay type in all cases: cell-based
# Design in all cases: host or cells: PathHunter cell lines
# [1] = molecular target: 168 GPCRs (Homo sapiens, UniProt P11229); conditions: CHRM1, Agonist
# Procedure: (§1) For agonist determination, cells were incubated with sample to induce response. […] Vehicle concentration was 1%.
# [2] = molecular target: 168 GPCRs (Homo sapiens, UniProt P50391)
# Procedure: as §1
# [3] = molecular target: 168 GPCRs (Homo sapiens, UniProt Q8TDS5)
# Procedure: as §1
# [4] = molecular target: 168 GPCRs (Homo sapiens, UniProt O95136)
# Procedure: as §1
# [5] = molecular target: 168 GPCRs (Homo sapiens, UniProt P32239); conditions: CCKBR, Agonist
# Procedure: as §1
# [6] = molecular target: 168 GPCRs (Homo sapiens, UniProt P25106)
# Procedure: as §1
# [7] = molecular target: 168 GPCRs (Homo sapiens, UniProt Q15722); conditions: LTB4R
# Procedure: as §1
# [8] = molecular target: 168 GPCRs (Homo sapiens, UniProt P43088); conditions: PTGFR
# Procedure: as §1
# [9] = molecular target: 168 GPCRs (Homo sapiens, UniProt P43119); conditions: PTGIR
# Procedure: as §1
# [10] = molecular target: 168 GPCRs (Homo sapiens, UniProt P34998)
# Procedure: as §1
# [11] = molecular target: 168 GPCRs (Homo sapiens, UniProt P21730); conditions: C5AR1, Agonist
# Procedure: as §1
# [12] = molecular target: 168 GPCRs (Homo sapiens, UniProt P51679); conditions: CCR4, Agonist
# Procedure: as §1
# [13] = molecular target: 168 GPCRs (Homo sapiens, UniProt P08912); conditions: CHRM5, Agonist
# Procedure: as §1
# [14] = molecular target: 168 GPCRs (Homo sapiens, UniProt P35367)
# Procedure: as §1
# [15] = molecular target: 168 GPCRs (Homo sapiens, UniProt P48546); conditions: GIPR
# Procedure: as §1
# [16] = molecular target: 168 GPCRs (Homo sapiens, UniProt Q96LB2)
# Procedure: as §1
# [17] = molecular target: 168 GPCRs (Homo sapiens, UniProt P32745)
# Procedure: as §1
# [18] = molecular target: 168 GPCRs (Homo sapiens, UniProt P18089); conditions: ADRA2B, Agonist
# Procedure: as §1
# [19] = molecular target: T1, 168 GPCRs (Homo sapiens, UniProt P0DMS8); conditions: ADORA3, Agonist
# T1 sequence (P0DMS8 1-318): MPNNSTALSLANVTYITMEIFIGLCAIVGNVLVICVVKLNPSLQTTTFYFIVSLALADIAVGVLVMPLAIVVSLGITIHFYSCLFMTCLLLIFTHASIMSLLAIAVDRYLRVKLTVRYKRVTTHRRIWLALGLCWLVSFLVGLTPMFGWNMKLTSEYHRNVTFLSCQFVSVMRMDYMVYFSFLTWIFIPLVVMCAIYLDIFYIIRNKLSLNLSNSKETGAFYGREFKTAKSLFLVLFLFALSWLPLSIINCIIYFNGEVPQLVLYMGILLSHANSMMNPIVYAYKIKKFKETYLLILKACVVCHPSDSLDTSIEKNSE
# Procedure: as §1
# [20] = molecular target: 168 GPCRs (Homo sapiens, UniProt P61073)
# Procedure: as §1
# [21] = molecular target: 168 GPCRs (Homo sapiens, UniProt P08588); conditions: ADRB1, Agonist
# Procedure: as §1
# Chain of 168 GPCRs (Homo sapiens, UniProt P08912) (P08912 whole entry): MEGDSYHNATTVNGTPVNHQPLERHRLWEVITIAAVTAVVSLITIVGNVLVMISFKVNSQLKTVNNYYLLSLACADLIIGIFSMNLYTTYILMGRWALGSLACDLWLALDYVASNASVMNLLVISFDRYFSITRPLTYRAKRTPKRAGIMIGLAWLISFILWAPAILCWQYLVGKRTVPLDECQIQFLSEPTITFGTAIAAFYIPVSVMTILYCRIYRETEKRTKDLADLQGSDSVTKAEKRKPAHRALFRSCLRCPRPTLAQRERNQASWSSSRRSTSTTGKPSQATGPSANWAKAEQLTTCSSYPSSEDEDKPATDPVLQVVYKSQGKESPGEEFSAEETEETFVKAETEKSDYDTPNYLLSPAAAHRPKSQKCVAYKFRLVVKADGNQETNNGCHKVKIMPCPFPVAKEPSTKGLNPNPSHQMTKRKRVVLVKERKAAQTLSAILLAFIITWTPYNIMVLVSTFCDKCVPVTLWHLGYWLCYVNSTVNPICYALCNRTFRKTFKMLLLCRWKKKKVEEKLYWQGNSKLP
# Chain of 168 GPCRs (Homo sapiens, UniProt P25106) (P25106 whole entry): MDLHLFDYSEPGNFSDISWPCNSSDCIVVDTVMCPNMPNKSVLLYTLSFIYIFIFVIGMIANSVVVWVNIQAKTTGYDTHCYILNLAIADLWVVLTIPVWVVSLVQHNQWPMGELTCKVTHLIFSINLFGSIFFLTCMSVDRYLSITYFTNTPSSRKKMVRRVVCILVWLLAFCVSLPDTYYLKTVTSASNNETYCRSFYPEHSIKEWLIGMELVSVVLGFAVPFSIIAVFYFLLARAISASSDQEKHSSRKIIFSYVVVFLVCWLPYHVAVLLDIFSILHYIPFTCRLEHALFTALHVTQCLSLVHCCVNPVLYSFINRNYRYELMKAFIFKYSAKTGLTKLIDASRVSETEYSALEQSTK
# Chain of 168 GPCRs (Homo sapiens, UniProt P51679) (P51679 whole entry): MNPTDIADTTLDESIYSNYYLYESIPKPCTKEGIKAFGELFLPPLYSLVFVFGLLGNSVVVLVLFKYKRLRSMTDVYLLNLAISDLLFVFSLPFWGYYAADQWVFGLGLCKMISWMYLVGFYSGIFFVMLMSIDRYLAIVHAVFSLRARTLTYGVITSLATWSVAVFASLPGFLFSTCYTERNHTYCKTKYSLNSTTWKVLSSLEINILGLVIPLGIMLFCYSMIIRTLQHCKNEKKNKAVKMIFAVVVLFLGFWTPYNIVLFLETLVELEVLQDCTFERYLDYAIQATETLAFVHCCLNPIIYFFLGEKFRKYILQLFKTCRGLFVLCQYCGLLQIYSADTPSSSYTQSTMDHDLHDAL
# Chain of 168 GPCRs (Homo sapiens, UniProt P08588) (P08588 whole entry): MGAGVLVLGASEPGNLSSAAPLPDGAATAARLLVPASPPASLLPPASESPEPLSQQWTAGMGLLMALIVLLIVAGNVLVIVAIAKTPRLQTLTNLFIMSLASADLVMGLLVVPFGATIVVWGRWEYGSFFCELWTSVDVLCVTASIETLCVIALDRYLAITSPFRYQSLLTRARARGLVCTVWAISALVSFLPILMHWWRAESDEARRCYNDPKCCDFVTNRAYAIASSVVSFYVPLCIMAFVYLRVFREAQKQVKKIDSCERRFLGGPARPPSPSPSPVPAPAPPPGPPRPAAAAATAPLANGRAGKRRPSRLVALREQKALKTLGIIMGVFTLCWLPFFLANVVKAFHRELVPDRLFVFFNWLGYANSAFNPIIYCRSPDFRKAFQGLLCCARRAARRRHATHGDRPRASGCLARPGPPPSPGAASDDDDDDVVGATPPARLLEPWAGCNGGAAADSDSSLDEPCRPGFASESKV
# Chain of 168 GPCRs (Homo sapiens, UniProt P18089) (P18089 whole entry): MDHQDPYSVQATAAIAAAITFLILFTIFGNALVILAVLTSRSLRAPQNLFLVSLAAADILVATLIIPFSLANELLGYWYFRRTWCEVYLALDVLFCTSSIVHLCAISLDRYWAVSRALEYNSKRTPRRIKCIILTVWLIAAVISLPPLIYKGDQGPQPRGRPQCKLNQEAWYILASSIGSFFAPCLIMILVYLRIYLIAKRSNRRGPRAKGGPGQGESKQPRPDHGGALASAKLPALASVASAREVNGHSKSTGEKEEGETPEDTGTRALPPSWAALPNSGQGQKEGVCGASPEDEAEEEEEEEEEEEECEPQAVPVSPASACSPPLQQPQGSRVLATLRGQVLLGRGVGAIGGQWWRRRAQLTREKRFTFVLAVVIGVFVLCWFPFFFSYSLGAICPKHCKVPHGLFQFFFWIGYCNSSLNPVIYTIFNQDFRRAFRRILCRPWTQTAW
# Chain of 168 GPCRs (Homo sapiens, UniProt Q96LB2) (Q96LB2 whole entry): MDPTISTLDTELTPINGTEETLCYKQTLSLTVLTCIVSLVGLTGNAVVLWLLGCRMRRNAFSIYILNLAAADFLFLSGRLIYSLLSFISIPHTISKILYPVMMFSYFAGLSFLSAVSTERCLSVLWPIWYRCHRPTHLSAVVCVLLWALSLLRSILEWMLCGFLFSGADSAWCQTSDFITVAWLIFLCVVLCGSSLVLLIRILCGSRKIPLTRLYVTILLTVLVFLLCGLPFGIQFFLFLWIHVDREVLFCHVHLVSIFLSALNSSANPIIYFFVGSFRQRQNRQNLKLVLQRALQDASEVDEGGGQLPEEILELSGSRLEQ
# Chain of 168 GPCRs (Homo sapiens, UniProt P50391) (P50391 whole entry): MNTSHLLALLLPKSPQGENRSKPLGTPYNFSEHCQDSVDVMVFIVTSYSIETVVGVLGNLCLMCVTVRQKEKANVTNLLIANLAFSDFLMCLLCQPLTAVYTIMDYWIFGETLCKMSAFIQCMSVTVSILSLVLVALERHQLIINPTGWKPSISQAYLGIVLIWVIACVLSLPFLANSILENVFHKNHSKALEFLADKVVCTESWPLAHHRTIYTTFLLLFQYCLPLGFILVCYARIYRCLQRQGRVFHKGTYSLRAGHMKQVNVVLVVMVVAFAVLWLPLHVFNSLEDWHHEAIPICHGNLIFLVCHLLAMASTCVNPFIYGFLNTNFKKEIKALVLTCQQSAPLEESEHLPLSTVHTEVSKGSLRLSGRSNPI
# Chain of 168 GPCRs (Homo sapiens, UniProt P35367) (P35367 whole entry): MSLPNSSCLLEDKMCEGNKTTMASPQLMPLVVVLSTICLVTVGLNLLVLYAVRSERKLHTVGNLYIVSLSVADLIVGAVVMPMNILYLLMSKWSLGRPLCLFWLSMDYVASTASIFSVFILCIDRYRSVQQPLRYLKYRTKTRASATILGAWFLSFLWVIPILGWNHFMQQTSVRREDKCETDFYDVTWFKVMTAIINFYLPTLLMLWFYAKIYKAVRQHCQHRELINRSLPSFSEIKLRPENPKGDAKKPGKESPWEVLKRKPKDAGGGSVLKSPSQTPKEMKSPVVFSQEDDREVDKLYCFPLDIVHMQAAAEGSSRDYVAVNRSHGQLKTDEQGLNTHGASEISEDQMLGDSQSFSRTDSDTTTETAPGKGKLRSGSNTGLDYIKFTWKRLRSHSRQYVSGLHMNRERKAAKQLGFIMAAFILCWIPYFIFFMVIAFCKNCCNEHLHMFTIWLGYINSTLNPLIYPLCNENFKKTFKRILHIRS
# Chain of 168 GPCRs (Homo sapiens, UniProt P43088) (P43088 whole entry): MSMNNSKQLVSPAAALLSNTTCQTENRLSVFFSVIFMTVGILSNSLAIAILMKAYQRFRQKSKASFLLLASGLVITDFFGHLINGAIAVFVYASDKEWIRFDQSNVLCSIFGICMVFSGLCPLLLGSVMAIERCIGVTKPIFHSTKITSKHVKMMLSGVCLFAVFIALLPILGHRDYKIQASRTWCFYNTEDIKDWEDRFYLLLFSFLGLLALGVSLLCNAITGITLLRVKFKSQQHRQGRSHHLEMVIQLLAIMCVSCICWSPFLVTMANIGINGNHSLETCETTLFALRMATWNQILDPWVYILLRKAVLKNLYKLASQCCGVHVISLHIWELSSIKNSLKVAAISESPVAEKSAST
# Chain of 168 GPCRs (Homo sapiens, UniProt P61073) (P61073 whole entry): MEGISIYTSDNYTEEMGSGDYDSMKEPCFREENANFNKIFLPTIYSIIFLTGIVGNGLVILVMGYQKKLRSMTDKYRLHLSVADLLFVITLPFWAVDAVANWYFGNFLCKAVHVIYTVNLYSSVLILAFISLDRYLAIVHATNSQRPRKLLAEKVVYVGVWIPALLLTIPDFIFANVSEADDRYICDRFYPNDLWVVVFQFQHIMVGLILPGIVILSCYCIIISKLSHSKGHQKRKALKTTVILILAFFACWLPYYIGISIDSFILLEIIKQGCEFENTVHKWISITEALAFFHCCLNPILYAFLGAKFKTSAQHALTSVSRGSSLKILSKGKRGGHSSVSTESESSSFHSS
# Chain of 168 GPCRs (Homo sapiens, UniProt Q8TDS5) (Q8TDS5 whole entry): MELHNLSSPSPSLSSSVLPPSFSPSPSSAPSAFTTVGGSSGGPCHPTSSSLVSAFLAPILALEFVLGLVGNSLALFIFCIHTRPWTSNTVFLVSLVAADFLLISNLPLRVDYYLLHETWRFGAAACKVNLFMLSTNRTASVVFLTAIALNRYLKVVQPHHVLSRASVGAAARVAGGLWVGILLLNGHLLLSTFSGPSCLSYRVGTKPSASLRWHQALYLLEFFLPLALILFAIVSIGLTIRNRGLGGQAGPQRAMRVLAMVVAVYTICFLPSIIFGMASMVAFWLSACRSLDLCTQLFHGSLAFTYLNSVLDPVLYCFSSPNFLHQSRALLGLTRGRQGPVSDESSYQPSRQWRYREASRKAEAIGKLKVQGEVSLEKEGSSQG
# Chain of 168 GPCRs (Homo sapiens, UniProt P34998) (P34998 24-415): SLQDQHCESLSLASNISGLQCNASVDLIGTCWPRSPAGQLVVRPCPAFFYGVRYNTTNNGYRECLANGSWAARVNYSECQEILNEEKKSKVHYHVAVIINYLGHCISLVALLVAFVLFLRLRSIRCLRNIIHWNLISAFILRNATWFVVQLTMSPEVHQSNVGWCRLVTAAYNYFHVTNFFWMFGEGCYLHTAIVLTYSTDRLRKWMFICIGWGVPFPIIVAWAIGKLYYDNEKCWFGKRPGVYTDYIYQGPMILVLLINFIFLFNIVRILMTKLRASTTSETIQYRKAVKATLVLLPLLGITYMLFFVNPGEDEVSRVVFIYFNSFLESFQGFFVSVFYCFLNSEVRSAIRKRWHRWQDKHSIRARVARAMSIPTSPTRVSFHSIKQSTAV
smiles,measurement,setting,value
"CNC(C)C(=O)c1ccc2c(c1)OCO2 (stereo not drawn) [methylone, 3,4-methylenedioxy-N-methylcathinone]",activity at 1 µM,[1]; 1 uM,-9.1%
same,activity at 10 µM,[1]; 10 uM,8.5%
same,activity at 10 µM,"[2]; PPYR1, Agonist mode, 10 uM",-1.2%
same,activity at 1 µM,"[2]; PPYR1, Agonist, 1 uM",-1.7%
same,activity at 10 µM,"[3]; OXER1, Agonist mode, 10 uM",-3.7%
same,activity at 1 µM,"[3]; OXER1, Agonist, 1 uM",3.2%
same,activity at 10 µM,"[4]; EDG5, Agonist mode, 10 uM",3.7%
same,activity at 1 µM,"[4]; EDG5, Agonist, 1 uM",-4.7%
same,activity at 1 µM,[5]; 1 uM,-1%
same,activity at 10 µM,[5]; 10 uM,1.5%
same,activity at 10 µM,"[6]; CXCR7, Agonist mode, 10 uM",-0.8%
same,activity at 1 µM,"[6]; CXCR7, Agonist, 1 uM",-1.3%
same,activity at 10 µM,"[7]; Agonist mode, 10 uM",-0.8%
same,activity at 1 µM,"[7]; Agonist, 1 uM",-0.3%
same,activity at 10 µM,"[8]; Agonist mode, 10 uM",-0.2%
same,activity at 1 µM,"[8]; Agonist, 1 uM",0.3%
same,activity at 10 µM,"[9]; Agonist mode, 10 uM",-2.3%
same,activity at 1 µM,"[9]; Agonist, 1 uM",-4.4%
same,activity at 10 µM,"[10]; CRHR1, Agonist mode, 10 uM",1.1%
same,activity at 1 µM,"[10]; CRHR1, Agonist, 1 uM",1.4%
same,activity at 1 µM,[11]; 1 uM,-1%
same,activity at 10 µM,[11]; 10 uM,-1.3%
same,activity at 1 µM,[12]; 1 uM,-0.5%
same,activity at 10 µM,[12]; 10 uM,1.4%
same,activity at 1 µM,[13]; 1 uM,7.2%
same,activity at 10 µM,[13]; 10 uM,8.7%
same,activity at 10 µM,"[14]; HRH1, Agonist mode, 10 uM",2.5%
same,activity at 1 µM,"[14]; HRH1, Agonist, 1 uM",3%
same,activity at 10 µM,"[15]; Agonist mode, 10 uM",-5.8%
same,activity at 1 µM,"[15]; Agonist, 1 uM",-2.9%
same,activity at 10 µM,"[16]; MRGPRX1, Agonist mode, 10 uM",-1.5%
same,activity at 1 µM,"[16]; MRGPRX1, Agonist, 1 uM",-1.7%
same,activity at 10 µM,"[17]; SSTR3, Agonist mode, 10 uM",0.3%
same,activity at 1 µM,"[17]; SSTR3, Agonist, 1 uM",0.7%
same,activity at 1 µM,[18]; 1 uM,-1%
same,activity at 10 µM,[18]; 10 uM,1.3%
same,activity at 1 µM,[19]; 1 uM,-4.5%
same,activity at 10 µM,[19]; 10 uM,-5.3%
same,activity at 10 µM,"[20]; CXCR4, Agonist mode, 10 uM",7%
same,activity at 1 µM,"[20]; CXCR4, Agonist, 1 uM",-4%
same,activity at 1 µM,[21]; 1 uM,-1.7%
same,activity at 10 µM,[21]; 10 uM,-1.4%
